Laboratory results taken from patent publication US20220218695A1, “COMBINATION OF AN ALPHA2-ADRENOCEPTOR SUBTYPE C (ALPHA-2C) ANTAGONISTS WITH A TASK1/3 CHANNEL BLOCKER FOR THE TREATMENT OF SLEEP APNEA” (Bayer Aktiengesellschaft, priority 2019, published 2022).

Tested on: upper airway collapsibility in anaesthetized, spontaneously breathing pigs
Experiment: pig model of obstructive sleep apnea (OSA): upper airway collapsibility under negative pressure
Assay type: in vivo, German Landrace pigs
Description: The therapeutic potential of the combination of an α2-Adrenoceptor subtype C (alpha-2C) antagonists with a TASK1/3 channel blocker according to the present invention in sleep apnea can be assessed preclinically in a pig model of obstructive sleep apnea (OSA).
Using negative pressure, it is possible to induce collapse and thus obstruction of the upper respiratory tract in anaesthetized, spontaneously breathing pigs (Wirth K. J. et al., Sleep 36(5)(2013) pp. 699-708).
German Landrace pigs are used for the model. The pigs are anaesthetized and tracheotomized. Two tracheal cannulas are inserted into the trachea, one into the rostral part and the other into the caudal part of the trachea. Using a connection piece, the rostral cannula is connected to a tube to the negative pressure device and to the distal tracheal cannula. The distal tracheal cannula is additionally connected to a tube with an open end to atmosphere via a connection piece that served for free tracheal breathing, circumventing the upper airway. By appropriate opening and clamping of those tubes breathing can be switched from nasal breathing to breathing through the caudal tracheal cannula, circumventing the upper airway, and the (isolated) upper airway can be connected to the negative pressure device, causing airflow in the inspiratory direction.
At certain points in time, the collapsibility of the upper respiratory tract is tested by having the pig breathe via the caudal cannula and applying negative pressures of −50, −100 and −150 cm water head (cm H2O) to the upper respiratory tract. This causes the upper respiratory tract to collapse, which manifests itself in an interruption of the airflow and a pressure drop in the tube system. This test is conducted prior to the administration of the test substance and at certain intervals after the administration of the test substance. An appropriately effective test substance can prevent this collapse of the respiratory tract in the inspiratory phase.

[1] = alpha-2C antagonist alone, 90 min after bolus injection […] and start of infusion 0.005 μg/kg/h
[2] = 0 min (time point of i.v. bolus […] and start of infusion 0.005 μg/kg/h; baseline)
[3] = 30 min after i.v. bolus […] and start of infusion 0.005 μg/kg/h, alpha-2C antagonist alone
[4] = 60 min after i.v. bolus […] and start of infusion 0.005 μg/kg/h, alpha-2C antagonist alone
[5] = 90 min after i.v. bolus […] and start of infusion 0.005 μg/kg/h, time point of nasal application of TASK1/3 channel blocker
[6] = 0 min (time point of intranasal administration of 0.3 μg; baseline), TASK1/3 blocker alone
[7] = 10 min after intranasal administration of 0.3 μg, TASK1/3 blocker alone
[8] = 30 min after intranasal administration of 0.3 μg, TASK1/3 blocker alone
[9] = 60 min after intranasal administration of 0.3 μg, TASK1/3 blocker alone

COC[C@@]1(C)CCCN2CCc3c(oc4ccccc34)[C@@H]21 [(1S,12bS)-1-(methoxymethyl)-1-methyl-1,3,4,6,7,12b-hexahydro-2H-[1]benzofuro[2,3-a]quinolizine]
non effective dose: effectiveness of dose on upper airway collapsibility (alpha-2C antagonist alone, i.v. bolus […] + infusion 0.005 μg/kg/h)
only inhibited: upper airway collapsibility at negative pressures of −50 cm head (cm H2O) [1]
at no time point: inhibited upper airway collapsibility at all negative pressures of −50, −100 and −150 cm head (cm H2O) (alpha-2C antagonist alone, i.v. bolus […] followed by i.v. infusion 0.005 μg/kg/h for four hours)
induced: upper airway collapsibility at negative pressures of −100 and −150 cm head (cm H2O) [1]
100%: Percent pigs without collaps −50 cm H2O, % [4] | Percent pigs without collaps −50 cm H2O, % [5]
0%: Percent pigs without collaps −50 cm H2O, % [2] | Percent pigs without collaps −50 cm H2O, % [3] | Percent pigs without collaps −100 cm H2O, % [2] | Percent pigs without collaps −100 cm H2O, % [3] | Percent pigs without collaps −100 cm H2O, % [4] | Percent pigs without collaps −100 cm H2O, % [5] | Percent pigs without collaps −150 cm H2O, % [2] | Percent pigs without collaps −150 cm H2O, % [3] | Percent pigs without collaps −150 cm H2O, % [4] | Percent pigs without collaps −150 cm H2O, % [5]

COc1cccc(C(=O)N2CCN(Cc3c(-c4ccc(Cl)cc4)nc4ccccn34)CC2)n1 [(4-{[2-(4-Chlorophenyl)imidazo[1,2-a]pyridin-3-yl]methyl}piperazin-1-yl)(6-methoxypyridin-2-yl)methanone]
0%: Percent pigs without collaps −50 cm H2O, % [6] | Percent pigs without collaps −50 cm H2O, % [7] | Percent pigs without collaps −50 cm H2O, % [8] | Percent pigs without collaps −50 cm H2O, % [9] | Percent pigs without collaps −100 cm H2O, % [6] | Percent pigs without collaps −100 cm H2O, % [7] | Percent pigs without collaps −100 cm H2O, % [8] | Percent pigs without collaps −100 cm H2O, % [9] | Percent pigs without collaps −150 cm H2O, % [6] | Percent pigs without collaps −150 cm H2O, % [7] | Percent pigs without collaps −150 cm H2O, % [8] | Percent pigs without collaps −150 cm H2O, % [9]
non effective dose: effectiveness of dose on upper airway collapsibility (TASK1/TASK3 channel blocker alone, 0.3 μg intranasal)
